Series [1] deals with Lsp FRET peptide substrate Dabsyl-VTGC((R)-2,3-di(palmitoyloxy)-propyl)AKD(EDANS). Nature of the series: cell-based or functional assay.
In another series the target is Lsp (Escherichia coli, UniProt P00804). Conditions: cited from earlier work.
Series [2] deals with T1, E. coli Lsp (Escherichia coli, UniProt P00804, D131G/R160K). Kind of series: biochemical. Further details: The full length E. coli Lsp clone was generated using colony PCR of E. coli K12; His-tag (pET19b leader); made in house; host or cells: E. coli BL21(DE3)pLysS. How it is done:
Utilizing the purified and solubilized Lsp enzyme, we developed an in vitro high-throughput functional screening for the integral membrane protease Lsp. First, screening of the Maybridge HitFinder library (Thermo Fisher) was conducted in black polystyrene 384-well low volume plates (Greiner #788076) using a BioRAPTR reagent dispenser (Beckman Coulter). Purified Lsp was diluted to 500 nM in assay buffer (PBS, 5% glycerol, 0.5% DDM pH 7.4) and 10 µL of this stock was added into each well. Next, 100 nL of a 2 mM stock of library compounds were pinned into each well and plates were centrifuged briefly. Following incubation at room temperature for 30 minutes, 2.5 μL of 250 μM Lsp FRET substrate in 25% dimethyl sulfoxide (DMSO), 75% assay buffer was added to each well. The plates were spun down and incubated for 30 minutes at room temperature. The assay was quenched with 2.5 μL of a solution containing 500 mM zinc chloride in water, giving a final concentration of 83 mM. The concentration of Lsp, FRET substrate, and library compounds during the activity assay were 400 nM, 50 μM, and 16 μM, respectively.
Catalytic signal was defined as the full enzyme activity pinning DMSO only, and background signal was measured by adding substrate to assay buffer containing no Lsp.
We tested several fixed concentrations of BBS-20 against varying concentrations of Lsp FRET substrate to determine a mechanism of inhibition (FIG. 8).

Series [3] deals with T1, E. coli Lsp. Conditions: resynthesized compound.
Method: Next, 50 nL of stock TSRI FL library compounds were pinned into each well to a final concentration of 8.4 μM and plates were centrifuged briefly. […] Fluorescence was measured on an EnVision pate reader (ex. 355 nm; em. 495 nm).
The 344 compounds were subjected to a dose-dependent titration assay with 10-point dose-response titrations (3-fold dilutions) in triplicate. LSP primary and pre-quench titration assays employed the same reagents, protocols, and detection systems as the secondary assays. […] Globomycin was included in the both titration assays as a control. For each test compound, percent activity was plotted against compound concentration. A four parameter equation describing a sigmoidal dose-response curve was then fitted with adjustable baseline using Assay Explorer software (Symyx Technologies Inc.). The reported IC50 values were generated from fitted curves by solving for the X-intercept value at the 50% activity level of the Y-intercept value.
Series [4] has as its target T2, Lsp FRET peptide substrate Dabsyl-VTGC((R)-2,3-di(palmitoyloxy)-propyl)AKD(EDANS).
T2 chain: VTGCAKD

A value given as a limit tells only on which side of the number the result lay.

T1 sequence (P00804 other isoform, or with tags, fused parts or gaps D131G/R160K): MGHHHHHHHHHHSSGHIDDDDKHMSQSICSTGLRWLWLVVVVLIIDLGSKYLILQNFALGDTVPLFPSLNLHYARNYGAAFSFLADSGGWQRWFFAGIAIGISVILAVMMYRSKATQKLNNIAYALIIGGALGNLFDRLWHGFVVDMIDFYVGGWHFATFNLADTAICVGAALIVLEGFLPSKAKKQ

Turning to “E. coli lipoprotein signal peptidase (Lsp), full length, N-terminal His-tag fusion, DDM-solubilized and purified (from UniProt P00804 1-164) (enzyme)”, the substrate inhibition (Michaelis-Menten kinetics of peptide hydrolysis, FRET) in series [1] is greater than 100 µM.
As to `CCCCCCC1OC(=O)CNC(=O)C(C(C)O)NC(=O)C(CO)NC(=O)C(C(C)CC)NC(=O)C(CC(C)C)N(C)C(=O)C1C` (stereo not shown) [globomycin], at Lsp, the mode of inhibition result is “noncompetitively”.
A word on the IC50: it is the midpoint of a concentration-inhibition curve. Consider `CCN(CC)CCc1cn(CC(=O)NC[C@]2(C)CCC[C@]3(C)c4ccc(C(C)C)cc4CC[C@@H]23)nn1` [BBS-20], for which the IC50 at E. coli Lsp [2] amounted to 15 ± 4 µM. The “identified as Lsp inhibitor in Sharpless library screen” value on E. coli Lsp [2] (16 μM compound, 400 nM Lsp, 50 μM FRET substrate, triplicate) is “inhibitors”. In addition, at E. coli Lsp [2] (fixed concentrations of compound against varying concentrations of Lsp FRET substrate), the mode of inhibition result is given as “noncompetitive”.
The EC50 is the midpoint of the concentration-response curve. Read a high EC50 as weaker potency. With `CCC(CC)c1nnc(NC(=O)c2cc(OC)c(OC)cc2[N+](=O)[O-])s1` [SR-01000270728-1], the EC50 at E. coli Lsp [3] worked out at 2.2 µM.

B1: E. coli lipoprotein signal peptidase (Lsp), full length, N-terminal His-tag fusion, DDM-solubilized and purified (protein)
chain: MSQSICSTGLRWLWLVVVVLIIDLGSKYLILQNFALGDTVPLFPSLNLHYARNYGAAFSFLADSGGWQRWFFAGIAIGISVILAVMMYRSKATQKLNNIAYALIIGGALGNLFDRLWHGFVVDMIDFYVGDWHFATFNLADTAICVGAALIVLEGFLPSRAKKQ
For B1, the “KM (Michaelis-Menten kinetics of peptide hydrolysis, FRET)” value in series [4] was “KM=5 µM”.
